The record followed here is patent US8513268B2, “1H-quinazoline-2,4-diones processes for their production, pharmaceutical compositions, and treatment for epilepsy” (Novartis AG, priority 2005, dated 2013).

Series [1] addresses AMPA-Receptor. In words: [3H] CNQX binding test (AMPA-receptor binding). The following applies: brain membranes, 5 nM [3H]-CNQX, 4° C., 40 min. As to the method:
CNQX binding test (Honoré et al. Biochem. Pharmacol. 1989, 38: 3207-3212). This test is performed as follows: • Brain membranes: The animals are decapitated, the brain removed and homogenized in 10 volumes of ice-cold 10% sucrose with a glass/Teflon homogenizer at positions 5 for 30 sec. The membranes are centrifuged at 1000×g for 10 min, and the supernatant centrifuged at 20,000×g for 15 min. The resulting pellet is resuspended in 10 volumes of cold water with a tissue homogenizer (Brinkman Polytron) at position 5 for 15 sec and the suspension centrifuged at 8000×g for 10 min. The supernatant including the buffy layer is centrifuged at 40,000×g for 20 min, the pellet resuspended in 5 volumes of water and the suspension frozen (20-30 min in dry ice/MeOH) and thawed (water-bath at 37° C.) twice. The suspension is centrifuged at 40,000×g for 20 min, the pellet resuspended in 50 mM HEPES/KOH, pH 7.5, and centrifuged at 40,000×g for 10 min. […]
Two hundred μL of the scintillation fluid Microscint 20 (Packard) are added and the radioactivity is counted in a Packard Topcount scintillation counter at an efficiency of 40-45%. […]

Series [2] has as its target T1, rGluR3 AMPA receptor (Rattus norvegicus, UniProt P19492).
T1 construct: expressed in transfected cells; host or cells: Xenopus laevis oocytes injected with cRNA
In words: Functional test for AMPA-receptor activity, two electrode voltage clamp in Xenopus laevis oocytes. The class given is cell-based. The following applies: oocytes expressing rat GluR3-(flop) AMPA receptor; read-out: IC50-value (antagonist). The method, then:
For the determination of functional agonism or antagonism at the AMPA-receptor, experiments can be performed on Xenopus oocytes as previously described in detail (Urwyler et al., Mol. Pharmacol. 2001, 60, 963-971). Briefly, two electrode voltage clamp recordings are performed from Xenopus laevis oocytes expressing GluR3 AMPA receptors. Plasmids for the rat GluR3-(flop) (Hollmann et al., Science 1991, 252, 851-853) are linearized and transcribed into capped cRNA using an in vitro RNA synthesis kit (Ambion, Texas) with T7 Polymerase. Stock solutions are kept in 70% EtOH. Before use, cRNA is precipitated and resuspended in DEPC-treated water. Oocytes are injected with RNA coding the rat GluR3-(flop) AMPA receptor. For recordings, oocytes are placed in a perfusion chamber with continuous gravity flow of frog Ringer's solution. For recordings from oocytes expressing rGluR3-(flop) receptors frog, Ringer's solution containing Mg^2+ (81 mM NaCl; 2.5 mM KCl; 1 mM CaCl2; 1 mM MgCl2, 2.5 mM NaHCO3, 5 mM HEPES, pH 7.4) is used.
Test compounds are washed in with gravity.

T1 sequence (P19492 23-888): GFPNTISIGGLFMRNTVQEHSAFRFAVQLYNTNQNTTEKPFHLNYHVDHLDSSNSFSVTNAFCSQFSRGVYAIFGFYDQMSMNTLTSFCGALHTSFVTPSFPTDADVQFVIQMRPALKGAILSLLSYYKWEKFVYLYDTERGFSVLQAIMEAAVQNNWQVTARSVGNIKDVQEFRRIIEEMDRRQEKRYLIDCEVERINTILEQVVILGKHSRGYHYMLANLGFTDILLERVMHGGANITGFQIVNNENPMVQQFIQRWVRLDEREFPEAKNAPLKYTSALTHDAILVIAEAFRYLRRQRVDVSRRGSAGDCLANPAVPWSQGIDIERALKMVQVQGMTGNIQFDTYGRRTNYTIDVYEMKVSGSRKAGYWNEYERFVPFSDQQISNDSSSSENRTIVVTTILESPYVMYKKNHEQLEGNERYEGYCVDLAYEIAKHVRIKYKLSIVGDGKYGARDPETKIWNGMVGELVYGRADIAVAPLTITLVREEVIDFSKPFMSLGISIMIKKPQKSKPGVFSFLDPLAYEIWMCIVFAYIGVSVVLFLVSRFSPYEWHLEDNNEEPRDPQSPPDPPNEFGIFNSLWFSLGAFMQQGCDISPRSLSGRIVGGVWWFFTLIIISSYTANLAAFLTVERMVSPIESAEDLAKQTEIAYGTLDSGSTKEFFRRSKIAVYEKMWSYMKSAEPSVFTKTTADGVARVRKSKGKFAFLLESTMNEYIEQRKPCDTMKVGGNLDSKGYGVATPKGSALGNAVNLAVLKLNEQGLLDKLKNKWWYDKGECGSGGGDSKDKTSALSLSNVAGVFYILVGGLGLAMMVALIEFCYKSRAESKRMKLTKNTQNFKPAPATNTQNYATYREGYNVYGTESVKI

Turning to `CCOC(C)c1cc2c(=O)n(NS(C)(=O)=O)c(=O)[nH]c2cc1C(F)(F)F` (centres unmarked) [Example 4, N-[6-(1-Ethoxy-ethyl)-2,4-dioxo-7-trifluoromethyl-1,4-dihydro-2H-quinazolin-3-yl]-methanesulfonamide], the melting point fell in the range of 105 to 112 °C. Moreover, the half-inhibitory concentration (IC50) in series [1] is < 1000 nM. In addition, in series [2], the IC50 was < 3000 nM.

Turning to `CS(=O)(=O)Nn1c(=O)[nH]c2cc(C(F)(F)F)c(C(=O)C(F)(F)F)cc2c1=O` [Example 20, N-[2,4-Dioxo-6-(2,2,2,-trifluoro-acetyl)-7-trifluoromethyl-1,4-dihydro-2H-quinazolin-3-yl]-methanesulfonamide], the melting point was in the range of 262 to 265 °C. In the case of `CC(C)C(=O)c1cc2c(=O)n(NS(C)(=O)=O)c(=O)[nH]c2cc1C(F)(F)F` [Example 21, N-(6-Isobutyryl-2,4-dioxo-7-trifluoromethyl-1,4-dihydro-2H-quinazolin-3-yl)-methanesulfonamide], the melting point lay in the range of 228 to 231 °C. In turn, `CC(C)C(O)c1cc2c(=O)n(NS(C)(=O)=O)c(=O)[nH]c2cc1C(F)(F)F` (centres unmarked) [Example 22, N-[6-(1-Hydroxy-2-methyl-propyl)-2,4-dioxo-7-trifluoromethyl-1,4-dihydro-2H-quinazolin-3-yl]methanesulfonamide] yielded a melting point of 232 to 235 °C. Compound `COC(c1cc2c(=O)n(NS(C)(=O)=O)c(=O)[nH]c2cc1C(F)(F)F)C(C)C` (centres unmarked) [Example 23, N-[6-(1-Methoxy-2-methyl-propyl)-2,4-dioxo-7-trifluoromethyl-1,4-dihydro-2H-quinazolin-3-yl]-methanesulfonamide] registered a melting point of 227 to 229 °C. Turning to `CS(=O)(=O)Nn1c(=O)[nH]c2cc(C(F)(F)F)c(C3CCCCO3)cc2c1=O` (centres unmarked) [Example 24, N-[2,4-Dioxo-6-(tetrahydro-pyran-2-yl)-7-trifluoromethyl-1,4-dihydro-2H-quinazolin-3-yl]-methanesulfonamide], the melting point fell in the range of 275 to 280 °C. As to `CS(=O)(=O)Nn1c(=O)[nH]c2cc(C(F)(F)F)c(CCCO)cc2c1=O` [Example 25, N-[6-(3-Hydroxy-propyl)-2,4-dioxo-7-trifluoromethyl-1,4-dihydro-2H-quinazolin-3-yl]-methanesulfonamide], the melting point was 243 to 247 °C.

Turning to `CS(=O)(=O)Nn1c(=O)[nH]c2cc(C(F)(F)F)c(-c3cccc(C#N)c3)cc2c1=O` [Example 34, N-[6-(3-Cyano-phenyl)-2,4-dioxo-7-trifluoromethyl-1,4-dihydro-2H-quinazolin-3-yl]-methanesulfonamide], the melting point lay within 291 to 292 °C. The same measure, in the same setting: next, `CS(=O)(=O)Nn1c(=O)[nH]c2cc(C(F)(F)F)c(-c3ccc(C#N)cc3)cc2c1=O` [Example 35, N-[6-(4-Cyano-phenyl)-2,4-dioxo-7-trifluoromethyl-1,4-dihydro-2H-quinazolin-3-yl]-methanesulfonamide]: 145 to 147 °C.

`CC(=O)c1cccc(-c2cc3c(=O)n(NS(C)(=O)=O)c(=O)[nH]c3cc2C(F)(F)F)c1` [Example 36, N-[6-(3-Acetyl-phenyl)-2,4-dioxo-7-trifluoromethyl-1,4-dihydro-2H-quinazolin-3-yl]-methanesulfonamide] gave a melting point of 220 to 222 °C.

On to `CC(O)c1cccc(-c2cc3c(=O)n(NS(C)(=O)=O)c(=O)[nH]c3cc2C(F)(F)F)c1` (centres unmarked) [Example 37, N-{6-[3-(1-Hydroxy-ethyl)-phenyl]-2,4-dioxo-7-trifluoromethyl-1,4-dihydro-2H-quinazolin-3-yl}-methanesulfonamide], for which the melting point was 165 to 169 °C.

On to `CN(C)Cc1cccc(-c2cc3c(=O)n(NS(C)(=O)=O)c(=O)[nH]c3cc2C(F)(F)F)c1` [Example 39, N-[6-(3-Dimethylaminomethyl-phenyl)-2,4-dioxo-7-trifluoromethyl-1,4-dihydro-2H-quinazolin-3-yl]-methanesulfonamide], for which the melting point lay in the range of 346 to 348 °C.
